# Reference: US7838552B2, “Compositions comprising nebivolol” (Forest Laboratories Holdings Limited, priority 2004, dated 2010)
# Tested on: Black donor endothelial cells (HUVEC)
# Test: NO release from HUVEC of Black donors, measured with a porphyrinic nanosensor
# Type: cell-based, Human
# Conditions: for magnitude of the increase in NO release, Black versus White donor cells: chronic ACE inhibitor treatment followed by nebivolol 1 μM, FIG. 2 and FIG. 4
# Experimental: All measurements presented were recorded in vitro using a sensitive porphyrinic probe, as previously described. Malinski T, Taha Z., Nature. 1992; 358:676-678; Malinski T, Czuchajowski L., Methods in Nitric Oxide Research. 1996:319-339. NO release was measured directly from HUVEC. HUVEC cells from Black and White donors were grown in Ham's F12K medium with 2 mM L-glutamine adjusted to contain 1.5 g/L sodium bicarbonate and supplemented with 0.1 mg/ml heparin and 0.03-0.05 mg/ml endothelial cell growth supplement (ECGS) +10% fetal bovine serum. The HUVEC cells were kept in an atmosphere of elevated CO2 concentration (5%). Nebivolol was obtained from Mylan Laboratories (Morgantown, W.Va.).
# All measurements of endothelial NO release were conducted in Hank's balance solution at 37° C. Cell wells were transferred to a Faraday cage and a porphyrinic sensor (diameter 0.5 mm) was positioned at a distance of 5±2 μm from the surface of the endothelial cells using an inverted microscope (Leica Microsystems, Wetzlar, Germany) and a computer-assisted micromanipulator. The sensor operated with a three-electrode system: nanosensor (working electrode), saturated calomel electrode (reference electrode) and platinum wire (counter electrode, 0.5 mm diameter). The three electrodes were connected to a potentiostat/galvanostat PAR273. The baseline was stabilized after about 20 seconds. The test compounds were injected with a nanoinjector onto the surface of the cells following solubilization in buffer. Cells were incubated with the test compounds for a 24-hour period. The compounds were then washed out of the system before being immediately reintroduced in order to evaluate the consequences of chronic treatment on NO release from the cells. For additive experiments, cells were incubated with ACE inhibitor for 24 hours, the inhibitor was washed out of the system, nebivolol was added and the NO release measured. The current proportional to the NO concentration was measured with the sensor, which operated in amperometric mode at a constant potential of 0.63V. Data were acquired with the use of an IBM computer with custom software and amperograms (current vs. time curves) were recorded with a Guniry FAS1 Femtostat (Warminster, Pa.). Maximum release of NO was produced using a calcium agonist (1 μM). By increasing cytoplasmic levels of calcium, the ion can bind to calmodulin. The Ca2+-calmodulin complex is a cofactor for endothelial NO synthase, along with FAD, FMN, Heme and BH4.
# Nanosensors were prepared from carbon fibers. The size of the tip of carbon fiber was reduced from 6 μm to less than 1 μm by temperature controlled burning. The sensors were sensitized to NO by deposition of electrically conductive polymeric porphyrin and covered with a thin layer of Nafion. […]
Structure (SMILES),"enhancement of the ability of nebivolol to increase NO release (Black donor cells, chronic (24 h) enalapril 5 and 10 μM, then nebivolol 1 μM, FIG. 3)","magnitude of the increase in NO release, Black versus White donor cells","effect on the ability of nebivolol to increase NO release (Black donor cells, chronic (24 h) ramiprilat 1, 5 and 10 μM, washed out, then nebivolol 1 μM, FIG. 1)"
CCOC(=O)[C@H](CCc1ccccc1)N[C@@H](C)C(=O)N1CCC[C@H]1C(=O)O [enalapril],significantly enhanced,greater in endothelial cells from Blacks than Whites,–
C[C@H](N[C@@H](CCc1ccccc1)C(=O)O)C(=O)N1[C@H](C(=O)O)C[C@@H]2CCC[C@@H]21 [ramiprilat],–,greater in endothelial cells from Black donors,modest but significant effects
